Measurements from article PMC4193892, “3-O-Galloylated Procyanidins from Rumex acetosa L. Inhibit the Attachment of Influenza A Virus” (PLoS ONE, 2014).
Where two headings read alike, the source gives them in different places.

Key:
MDCK II cells = assay: cells; settings: Canis lupus familiaris, 48 h, read-out: cell vitality
[1] = system: IAV(H1N1)pdm09 isolate I1; assay: microbe, parasite or virus in culture; format: cell-based, influenza A virus; settings: for inhibition at 2 µM / inhibition at 20 µM / inhibition at 200 µM: H1N1, 48 h, read-out: anti-IAV activity
IAV(H1N1)pdm09 = system: IAV(H1N1)pdm09; design: method as in PMID 24498245; settings: preincubation of particles for 2 h with 50 µg/mL (265 µM); A549 cells; cited from earlier work
[2] = system: recombinant IAV laboratory strain A/Puerto Rico/8/34-NS116-GFP; settings: cited from earlier work
IAV neuraminidase = settings: cited from earlier work
IAV(H1N1)pdm09 I1 = format: cell-based, influenza A virus
chicken erythrocytes = assay: Direct agglutination of erythrocytes in the absence of IAV; format: cell-based; settings: minimal concentration
Protocol: Twofold serial dilutions (25 µL) of test compounds in PBS and 4 hemagglutinating units (HU) of IAV (25 µl) were mixed carefully in 96-well plates with U-shaped bottom (Thermo Fisher Scientific Nunc, Schwerte, Germany). Plates were shaken for 5 min. and incubated for 25 min. at room temperature (RT). 50 µL of a 1.5% suspension of newborn chicken erythrocytes (RBC) in PBS (Labor Dr. Merk & Kollegen, Ochsenhausen, Germany) were added, and plates shaken again. Assays were read following a 2 h incubation period at RT, and the minimum inhibitory concentration (MIC), defined as the highest test compound dilution showing complete inhibition of the agglutination of erythrocytes, was determined. In every assay, a test compound control (compound plus RBC without addition of IAV), and erythrocyte controls (A: IAV plus RBC, without addition of test compound; B: RBC, without addition of test compound or IAV) were included.

Row | SMILES | CC50 at 48 h (in vitro) | viability at 2 µM (MDCK II cells) | viability at 20 µM (MDCK II cells) | viability at 200 µM (MDCK II cells) | IC50 ([1]; Influenza A virus, H1N1) | inhibition at 2 µM ([1]; Influenza A virus) | inhibition at 20 µM ([1]; Influenza A virus) | inhibition at 200 µM ([1]; Influenza A virus) | CC50 at 48 h (in vitro; dog) | IC50 [1] | effect on virus replication (IAV(H1N1)pdm09) | EC50 [2] | IC50 (IAV neuraminidase) | MIC (IAV(H1N1)pdm09 I1) | direct agglutination (chicken erythrocytes)
1 | O=C(O[C@@H]1Cc2c(O)cc(O)cc2O[C@@H]1c1ccc(O)c(O)c1)c1cc(O)c(O)c(O)c1 [compound 5, epicatechin-3-O-gallate] | 175 µM | 107 ± 3% | 106 ± 4% | 41 ± 2% | ≤ 258 µM | 0% | 1% | 38 ± 2% | – | – | – | – | – | – | –
2 | Oc1cc(O)c2c(c1)O[C@H](c1ccc(O)c(O)c1)[C@H](O)C2 [compound 2, (−)-epicatechin] | > 200 µM | 101 ± 2% | 104 ± 4% | 124 ± 20% | > 200 µM | 0% | 0% | 1 ± 1% | – | – | – | – | – | – | –
3 | Oc1cc(O)c2c(c1)O[C@H](c1cc(O)c(O)c(O)c1)[C@H](O)C2 [compound 4, epigallocatechin] | > 200 µM | 101 ± 4% | 106 ± 1% | 86 ± 17% | > 200 µM | 0% | 0% | 26 ± 22% | – | – | – | – | – | – | –
4 | O=C(/C=C/c1ccc(O)c(O)c1)O[C@H](Cc1ccc(O)c(O)c1)C(=O)O [compound 16, rosmarinic acid, reference compound] | > 200 µM | 102 ± 1% | 103 ± 1% | 102 ± 1% | > 200 µM | 0% | 0% | 1 ± 1% | – | – | – | – | – | – | –
5 | Oc1cc(O)c2c(c1)O[C@H](c1cc(O)c(O)c(O)c1)[C@@H](O)C2 [compound 3, gallocatechin] | > 200 µM | 106 ± 5% | 108 ± 1% | 75 ± 17% | ≤ 156 µM | 0% | 0% | 66 ± 5% | – | – | – | – | – | – | –
6 | Oc1cc(O)c2c(c1)O[C@H](c1ccc(O)c(O)c1)[C@H](O)[C@H]2c1c(O)cc2c(c1O)C[C@@H](O)[C@@H](c1ccc(O)c(O)c1)O2 [compound 9, epicatechin-(4β→6)-epicatechin] | – | 100 ± 3% | 84 ± 4% | 57 ± 4% | ≤ 163 µM | 0% | 0% | 63 ± 4% | > 200 µM | – | – | – | – | – | –
7 | O=C(OC[C@H]1O[C@@H](OC(=O)c2cc(O)c(O)c(O)c2)[C@H](OC(=O)c2cc(O)c(O)c(O)c2)[C@@H](OC(=O)c2cc(O)c(O)c(O)c2)[C@@H]1OC(=O)c1cc(O)c(O)c(O)c1)c1cc(O)c(O)c(O)c1 [compound 12, 1,2,3,4,6-penta-O-galloyl-β-D-glucose, reference compound] | 83 µM | 91 ± 7% | 57 ± 14% | 37 ± 3% | 22 µM | 3 ± 3% | 46 ± 9% | 35 ± 1% | – | ≤ 22 µM | – | – | – | – | –
8 | O=C(O)c1cc(O)c(O)c(O)c1 [compound 17, gallic acid monohydrate, reference compound] | 197 µM | 106 ± 5% | 107 ± 8% | 49 ± 18% | > 200 µM | 0% | -1% | 14 ± 11% | – | – | only little effect | ~50 µM | > 500 µM | – | –
9 | O=C(O[C@@H]1Cc2c(O)cc(O)cc2O[C@@H]1c1cc(O)c(O)c(O)c1)c1cc(O)c(O)c(O)c1 [compound 6, reference compound] | – | 103 ± 4% | 92 ± 7% | 62 ± 9% | ≤ 12 µM | 1 ± 1% | 87 ± 25% | 60 ± 7% | > 200 µM | – | – | – | – | no inhibitory effect | 156 µM
10 | O=c1oc2c(O)c(O)cc3c(=O)oc4c(O)c(O)cc1c4c23 [compound 15, ellagic acid, reference compound] | > 200 µM | 106 ± 1% | 110 ± 3% | 108 ± 2% | > 200 µM | 0% | 1 ± 1% | 4 ± 1% | – | – | – | – | – | – | –
11 | O=C(O[C@@H]1O[C@@H]2COC(=O)c3cc(O)c(O)c(O)c3-c3c(cc(O)c(O)c3O)C(=O)O[C@H]([C@H]1O)[C@@H]2O)c1cc(O)c(O)c(O)c1 [compound 14, corilagin, reference compound] | – | 101 ± 1% | 103 ± 1% | 8 ± 1% | – | 0% | 1% | 3 ± 2% | 120 µM | uncalc. ^3 | – | – | – | – | –
12 | Oc1cc(O)c2c(c1)O[C@H](c1ccc(O)c(O)c1)[C@@H](O)C2 [compound 1, (+)-catechin monohydrate] | > 200 µM | 105 ± 3% | 102 ± 5% | 119 ± 9% | > 200 µM | 0% | 0% | 0% | – | – | – | – | – | – | –
13 | Oc1cccc(O)c1O [compound 18, pyrogallol, reference compound] | – | 98 ± 4% | 96 ± 1% | 43 ± 1% | ≤ 241 µM | 0% | 7 ± 3% | 42 ± 1% | 176 µM | – | – | – | – | – | –
14 | Oc1cc(O)c2c(c1)O[C@H](c1ccc(O)c(O)c1)[C@H](O)[C@H]2c1c(O)cc(O)c2c1O[C@H](c1ccc(O)c(O)c1)[C@H](O)C2 [compound 7, epicatechin-(4β→8)-epicatechin] | – | 107 ± 6% | 108 ± 9% | 117 ± 8% | > 200 µM | 0% | 0% | 1 ± 1% | > 200 µM | – | – | – | – | – | –
15 | O=C1O[C@H]2[C@@H]3OC(=O)c4cc(O)c(O)c(O)c4-c4c(cc(O)c(O)c4O)C(=O)OC[C@H]2O[C@@H](OC(=O)c2cc(O)c(O)c(O)c2)[C@@H]3OC(=O)c2cc(O)c(O)c3c2[C@@H]2C1=CC(=O)[C@](O)(O3)C2(O)O [compound 13, geraniin, reference compound] | – | 99 ± 1% | 107 ± 2% | 35 ± 3% | ≤ 388 µM | 0% | 1 ± 1% | 25% | 162 µM | – | – | – | – | – | –
16 | Oc1cc(O)c2c(c1)O[C@H](c1ccc(O)c(O)c1)[C@H](O)[C@H]2c1c(O)cc(O)c2c1O[C@H](c1ccc(O)c(O)c1)[C@H](O)[C@H]2c1c(O)cc(O)c2c1O[C@H](c1ccc(O)c(O)c1)[C@H](O)[C@H]2c1c(O)cc(O)c2c1O[C@H](c1ccc(O)c(O)c1)[C@H](O)C2 [compound 11, epicatechin-(4β→8)-epicatechin-(4β→8)-epicatechin-(4β→8)-epicatechin] | – | 101 ± 6% | 86 ± 8% | 54 ± 9% | ≤ 225 µM | 0% | 1% | 44 ± 7% | > 200 µM | – | – | – | – | – | –
17 | Oc1cc(O)c2c(c1)O[C@H](c1ccc(O)c(O)c1)[C@H](O)[C@H]2c1c(O)cc(O)c2c1O[C@H](c1ccc(O)c(O)c1)[C@H](O)[C@H]2c1c(O)cc(O)c2c1O[C@H](c1ccc(O)c(O)c1)[C@H](O)C2 [compound 10, epicatechin-(4β→8)-epicatechin-(4β→8)-epicatechin] | – | 104 ± 2% | 99 ± 4% | 122 ± 6% | 123 µM | 0% | 0% | 87 ± 5% | > 200 µM | – | – | – | – | – | –
